Patent US11078181B2, “Diaryl pyrazole compound and formulation for controlling harmful organisms” (Nippon Soda Co., Ltd., priority 2016, dated 2021)

Assays:
Type in all cases: in vivo
Plutella xylostella = assay: Efficacy test against Plutella xylostella (cabbage leaf dip); settings: foliar, 72 h, cabbage leaves soaked, second-instar larvae, 3 days after inoculation, read-out: insect mortality rate
Experimental: (§1) 5 parts of the compound of the present invention, 93.6 parts of dimethylformamide and 1.4 parts of polyoxyethylene alkyl aryl ether were mixed and dissolved to prepare Emulsion (I) including 5% of an active ingredient.
(§2) An insect mortality rate and a controlling rate were calculated by the numerical equations shown below. Insect mortality rate(%)={(Number of dead insects)/(Number of sample insects)}×100 Controlling rate={1−(Nt)/(Nc)}×100 • wherein • Nt: number of parasites in spray-treated area; and • Nc: number of parasites in non-treated area
Emulsion (I) was diluted with water so that the concentration of the compound of the present invention was 125 ppm. Cabbage leaves were soaked in the diluted liquid for 30 seconds. Subsequently, the cabbage leaves were put on Petri dishes, followed by inoculating 5 second-instar larvae of Plutella xylostella. The Petri dishes were placed in a thermostatic chamber at a temperature of 25° C. and humidity of 60%. Mortality was investigated 3 days after inoculation, and the insect mortality rate was calculated. The test was performed twice.

[1] = system: adult Phyllotreta striolata; assay: Efficacy test against Phyllotreta striolata (bok-choi seedling spray); settings: 168 h, sprayed on bok-choi seedlings, adults, 7 days after inoculation, read-out: insect mortality rate
Experimental: as §1, §2
Emulsion (I) was diluted with water so that the concentration of the compound of the present invention was 125 ppm, to prepare a diluted liquid for testing. The aforementioned diluted liquid was sprayed on bok-choi seedlings (7th major leaf-development period) planted in No. 3 pots. After the bok-choi seedlings were subjected to air-drying, the seedlings were placed in plastic cups, followed by inoculating 10 adult Phyllotreta striolata. […] Mortality was investigated 7 days after inoculation, and the insect mortality rate was calculated. […]
Emulsion (I) was diluted with water so that the concentration of the compound of the present invention was 8 ppm, to prepare a diluted liquid for testing. […] Mortality was investigated 7 days after inoculation, and the insect mortality rate was calculated. […]

Aphis gossypii = assay: Efficacy test against Aphis gossypii (cucumber seedling spray); settings: 96 h, sprayed on cucumber seedlings, nymphs, 4 days after spraying, read-out: insect mortality rate
Experimental: as §1, §2
Emulsion (I) was diluted with water so that the concentration of the compound of the present invention was 125 ppm. Cucumbers were raised in No. 3 pots and the first leaves were inoculated with nymphs of Aphis gossypii. The diluted emulsion mentioned above was sprayed onto the cucumber seedlings. The aforementioned cucumber seedlings were then placed in a thermostatic chamber with a temperature of 25° C. and humidity of 60%. Mortality was investigated 4 days after spraying was carried out, and the insect mortality rate of Aphis gossypii was calculated. The test was performed twice.

Aphis craccivora = assay: Efficacy test against Aphis craccivora (black-eyed pea spray); settings: in Vigna unguiculata, 96 h, sprayed on black-eyed pea plants, nymphs, 4 days after spraying, read-out: insect mortality rate
Experimental: as §1, §2
Black-eyed pea plants were raised in No. 3 pots and the primary leaves were inoculated with nymphs of Aphis craccivora. Emulsion (I) was diluted with water so that the concentration of the compound of the present invention was 125 ppm. Subsequently, the aforementioned diluted liquid was sprayed on the black-eyed pea plants on which the nymphs of Aphis craccivora were parasitic. The aforementioned black-eyed pea plants were then placed in a thermostatic chamber with a temperature of 25° C. and humidity of 60%. Mortality was investigated 4 days after spraying was carried out, and the insect mortality rate of Aphis craccivora was calculated. The test was performed twice.

Nilaparvata lugens = assay: Efficacy test against Nilaparvata lugens (rice seedling dip); settings: 168 h, rice seedlings soaked, second-instar larvae, 7 days after inoculation, read-out: insect mortality rate
Experimental: as §1, §2
Emulsion (I) was diluted with water so that the concentration of the compound of the present invention was 125 ppm. Rice seedlings were soaked in the diluted liquid for 30 seconds, and subjected to air-drying. Subsequently, the rice seedlings were placed in plastic cases, followed by inoculating 5 second-instar larvae of Nilaparvata lugens. The plastic cases were placed in a thermostatic chamber at a temperature of 25° C. and humidity of 65%. Mortality was investigated 7 days after inoculation, and the insect mortality rate was calculated. The test was performed twice.

[2] = system: first-instar larvae of Culex pipiens molestus; assay: Efficacy test against Culex pipiens molestus (larvae in chemical liquid); settings: 24 h, first-instar larvae in 100 mL chemical liquid, after one day, read-out: insect mortality rate
Experimental: as §1, §2
Emulsion (I) was diluted with water so that the concentration of the compound of the present invention was 10 ppm, to prepare a chemical liquid for testing. 20 first-instar larvae of Culex pipiens molestus were released in 100 mL of the chemical liquid. After one day, the number of dead insects was counted, and the insect mortality rate was calculated. The test was performed twice.

CCS(=O)(=O)c1ccc(-n2cncn2)nc1-n1ncc(-c2ccc(OC(F)(F)F)cc2)c1C [1-1, 3-(ethylsulfonyl)-2-(5-methyl-4-(4-(trifluoromethoxy)phenyl)-1H-pyrazol-1-yl)-6-(1H-1,2,4-triazol-1-yl)pyridine]
100%: mortality at 10 ppm [2]
≥ 80%: mortality at 125 ppm (Plutella xylostella) | mortality at 8 ppm ([1]; 8 ppm) | mortality at 125 ppm ([1]; 125 ppm) | mortality at 125 ppm (Aphis gossypii) | mortality at 125 ppm (Aphis craccivora) | mortality at 125 ppm (Nilaparvata lugens)
